Source: ChEMBL document CHEMBL1201862, “PubChem BioAssay data set” (2004)
The source made the active and inactive calls.

Experiments:
Mucolipin-3 = biological target: T1, Mucolipin-3 (Homo sapiens, UniProt Q8TDD5); experiment: Dose response cell-based high-throughput screening assay for agonists of the transient receptor potential channel ML3 (TRPML3). [Related pubchem assays: 1526, 1424, 1448 ]; format: functional
T1 sequence (Q8TDD5 whole entry): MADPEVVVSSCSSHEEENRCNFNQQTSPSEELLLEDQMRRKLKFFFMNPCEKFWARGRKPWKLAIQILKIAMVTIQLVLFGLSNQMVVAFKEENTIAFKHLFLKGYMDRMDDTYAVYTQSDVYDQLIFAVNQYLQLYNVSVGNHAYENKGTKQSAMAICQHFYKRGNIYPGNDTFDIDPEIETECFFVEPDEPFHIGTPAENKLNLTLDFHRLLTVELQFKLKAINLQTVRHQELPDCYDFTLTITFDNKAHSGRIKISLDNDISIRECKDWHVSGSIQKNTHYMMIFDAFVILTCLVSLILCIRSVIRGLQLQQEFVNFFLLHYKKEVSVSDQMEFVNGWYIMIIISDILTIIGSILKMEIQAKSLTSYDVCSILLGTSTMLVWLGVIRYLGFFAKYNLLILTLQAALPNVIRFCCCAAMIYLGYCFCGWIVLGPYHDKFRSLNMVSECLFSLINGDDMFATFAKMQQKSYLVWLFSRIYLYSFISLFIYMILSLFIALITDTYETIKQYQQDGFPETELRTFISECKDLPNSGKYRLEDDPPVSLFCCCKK

Ion channel NompC = Ion channel NompC (Danio rerio, UniProt Q7T1G6); experiment: Fluorescence counterscreen assay for TRPML3 agonists: dose response cell-based high-throughput screening assay to identify agonists of the transient receptor potential channel N1 (TRPN1). [Related pubchem assays: 1526, 1424, 1448 ]; format: functional
[1] = biological target: Glyceraldehyde-3-phosphate dehydrogenase (Homo sapiens, UniProt P04406)
Bcl-2-related protein A1 [2] = biological target: T2, Bcl-2-related protein A1 (Mus musculus, UniProt Q07440); experiment: Bfl-1 inhibitors blocking BH3 peptide binding, confirmation, biochemical, TR-FRET, mouse Bfl-1 (AID 621);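 also: TR-FRET binding of GST-Bfl-1 to FITC-labelled Bid peptide via terbium antibody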
T2 sequence (Q07440 whole entry): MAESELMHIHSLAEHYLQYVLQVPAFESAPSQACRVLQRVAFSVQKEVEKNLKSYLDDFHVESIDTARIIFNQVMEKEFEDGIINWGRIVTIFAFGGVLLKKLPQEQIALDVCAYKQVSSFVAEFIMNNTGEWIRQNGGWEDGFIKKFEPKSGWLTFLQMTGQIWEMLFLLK

Bcl-2-related protein A1 [3] = biological target: T2, Bcl-2-related protein A1; experiment: Bfl-1 binding inhibitors, SAR follow-up, biochemical, fluorescence polarization (AID 1070)
[4] = biological target: G-protein coupled receptor 55 (Homo sapiens, UniProt Q9Y2T6); experiment: GPR55 antagonists blocking LPI-driven arrestin recruitment, primary screen, imaging, U2OS, beta-arrestin-GFP, LPI agonist (AID 2013); format: functional;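 also: antagonist potency measured as reduced agonist-driven arrestin aggregation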
[5] = M. tuberculosis H37Rv growth inhibitors, H37Rv strain (AID 1626); format: functional
[6] = Luminescence Cell-Based Dose Response to Identify Activators of 5'UTR Stem-Loop Driven Prion Protein mRNA Translation in H4-C Neuroglioblastoma Cells. [Related pubchem assays: 1829 (Project Summary), 1814 (Primary HTS)]; format: functional
[7] = Luminescence Cell-Based Dose Response HTS to Identify Activators of Luciferase Translation or Activity in H4 […] Cells. [Related pubchem assays: 1829 (Project Summary), 1814 (Primary HTS)]; format: functional
[8] = Luminescence Cell-Based Dose Response to Identify Activators of Luciferase Translation or Activity in H4-C Neuroglioblastoma Cells. [Related pubchem assays: 1829 (Project Summary), 1814 (Primary HTS)]; format: functional
[9] = Luminescence Cell-Based Dose Confirmation to Identify Activators of 5'UTR Stem-Loop Driven Alpha-Synuclein mRNA Translation in H4 Neuroglioblastoma Cells. [Related pubchem assays: 1829 (Project Summary), 1814 (Primary HTS)]; format: functional
Cytochrome P450 2C9 = Cytochrome P450 2C9 (Homo sapiens, UniProt P11712)
[10] = biological target: T3, Neuropeptide Y receptor type 1 (Homo sapiens, UniProt P25929); format: functional;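 also: HEK293 cells with a CNG channel challenged with NPY then isoproterenol; potency as antagonist that reverses NPY suppression of cAMP signal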
T3 sequence (P25929 whole entry): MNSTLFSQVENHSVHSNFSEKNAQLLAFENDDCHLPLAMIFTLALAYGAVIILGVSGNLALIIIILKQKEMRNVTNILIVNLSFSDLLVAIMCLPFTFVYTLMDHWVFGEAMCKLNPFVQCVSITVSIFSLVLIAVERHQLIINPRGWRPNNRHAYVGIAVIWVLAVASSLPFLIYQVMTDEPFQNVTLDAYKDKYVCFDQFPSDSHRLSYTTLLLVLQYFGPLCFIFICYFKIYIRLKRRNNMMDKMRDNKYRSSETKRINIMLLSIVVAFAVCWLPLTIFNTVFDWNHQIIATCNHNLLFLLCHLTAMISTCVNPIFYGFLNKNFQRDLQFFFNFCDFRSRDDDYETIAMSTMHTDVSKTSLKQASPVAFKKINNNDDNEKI

[11] = biological target: T4, Neuropeptide Y receptor type 2 (Homo sapiens, UniProt P49146); format: functional, cell-based;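 also: HEK293 cells expressing the receptor and a CNG channel; stimulus was NPY near EC95 followed by isoproterenol to raise cAMP; antagonist potency measured as restoring cAMP signal that NPY suppresses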
T4 sequence (P49146 whole entry): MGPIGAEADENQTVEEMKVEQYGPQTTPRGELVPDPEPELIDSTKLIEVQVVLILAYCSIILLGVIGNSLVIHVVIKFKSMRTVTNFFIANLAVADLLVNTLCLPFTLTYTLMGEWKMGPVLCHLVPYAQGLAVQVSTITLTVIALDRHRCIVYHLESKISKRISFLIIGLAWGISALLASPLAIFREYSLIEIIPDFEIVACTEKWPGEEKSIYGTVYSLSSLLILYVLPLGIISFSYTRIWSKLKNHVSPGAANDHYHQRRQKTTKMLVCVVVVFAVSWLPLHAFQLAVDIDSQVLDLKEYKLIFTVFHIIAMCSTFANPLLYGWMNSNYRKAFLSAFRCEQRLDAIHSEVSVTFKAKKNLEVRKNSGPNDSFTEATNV

Large T antigen = Large T antigen (Simian virus 40, UniProt P03070); format: functional, Betapolyomavirus macacae;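 also: Confirmatory-stage PubChem screen for compounds that inhibit SV40 T antigen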
[12] = biological target: T5, Mannose-6-phosphate isomerase (Homo sapiens, UniProt P34949); experiment: inhibitors of human PMI, primary screen, biochemical, fluorescence intensity, coupled assay (AID 1209)
T5 sequence (P34949 whole entry): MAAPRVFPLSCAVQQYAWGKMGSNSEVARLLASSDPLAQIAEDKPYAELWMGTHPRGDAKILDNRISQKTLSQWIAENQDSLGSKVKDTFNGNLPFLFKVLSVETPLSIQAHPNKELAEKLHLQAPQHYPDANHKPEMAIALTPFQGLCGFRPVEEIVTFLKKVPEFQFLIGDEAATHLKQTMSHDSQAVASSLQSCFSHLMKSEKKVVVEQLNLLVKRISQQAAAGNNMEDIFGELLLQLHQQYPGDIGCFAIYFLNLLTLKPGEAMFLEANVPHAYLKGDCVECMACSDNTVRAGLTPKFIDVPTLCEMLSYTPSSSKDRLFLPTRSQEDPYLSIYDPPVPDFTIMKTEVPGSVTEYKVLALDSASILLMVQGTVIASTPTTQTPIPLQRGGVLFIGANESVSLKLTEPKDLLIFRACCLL

[13] = biological target: T5, Mannose-6-phosphate isomerase; experiment: human PMI inhibitors, high substrate, primary screen, biochemical, fluorescence intensity, high mannose 6-phosphate (AID 1220)
[14] = biological target: T6, Replicative DNA helicase DnaB (Mycobacterium tuberculosis, UniProt P9WMR3); experiment: DnaB intein splicing inhibitors, dose response, biochemical, cell-free fluorescence (AID 449749); format: functional
T6 sequence (P9WMR3 whole entry): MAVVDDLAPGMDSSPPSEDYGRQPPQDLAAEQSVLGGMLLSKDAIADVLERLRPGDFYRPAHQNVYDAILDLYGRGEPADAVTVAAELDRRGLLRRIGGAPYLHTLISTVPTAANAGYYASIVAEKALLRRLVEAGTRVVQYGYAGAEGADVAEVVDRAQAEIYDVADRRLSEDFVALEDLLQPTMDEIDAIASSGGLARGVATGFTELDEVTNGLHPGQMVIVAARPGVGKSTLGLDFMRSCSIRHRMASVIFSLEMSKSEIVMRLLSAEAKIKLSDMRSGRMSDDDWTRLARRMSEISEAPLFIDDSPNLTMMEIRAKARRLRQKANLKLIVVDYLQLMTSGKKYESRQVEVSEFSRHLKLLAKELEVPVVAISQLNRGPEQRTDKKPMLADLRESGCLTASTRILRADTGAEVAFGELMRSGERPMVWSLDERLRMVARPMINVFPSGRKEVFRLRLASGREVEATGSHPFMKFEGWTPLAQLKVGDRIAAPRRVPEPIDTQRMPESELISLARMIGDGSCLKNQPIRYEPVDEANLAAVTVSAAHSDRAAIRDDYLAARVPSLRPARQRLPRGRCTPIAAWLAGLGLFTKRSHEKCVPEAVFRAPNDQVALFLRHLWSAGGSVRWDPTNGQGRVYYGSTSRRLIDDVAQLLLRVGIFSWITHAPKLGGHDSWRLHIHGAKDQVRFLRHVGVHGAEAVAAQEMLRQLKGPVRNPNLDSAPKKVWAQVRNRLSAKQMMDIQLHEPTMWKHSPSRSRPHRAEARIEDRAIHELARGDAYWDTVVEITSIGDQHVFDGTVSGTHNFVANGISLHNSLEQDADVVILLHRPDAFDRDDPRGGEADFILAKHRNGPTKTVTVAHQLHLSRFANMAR

Vero = Vero cell cytotoxicity, cytotoxicity control for flavivirus capping enzyme inhibitors (AID 588742); format: functional; conditions: Chlorocebus sabaeus
Protein RecA = biological target: T7, Protein RecA (Mycobacterium tuberculosis, UniProt P9WHJ3); experiment: Fluorescence Cell-Free Homogeneous Dose Retest to Identify Inhibitors of RecA-Intein Splicing Activity. [Related pubchem assays (depositor defined):AID2097, AID2223, AID489010, AID492950]; format: functional
T7 sequence (P9WHJ3 whole entry): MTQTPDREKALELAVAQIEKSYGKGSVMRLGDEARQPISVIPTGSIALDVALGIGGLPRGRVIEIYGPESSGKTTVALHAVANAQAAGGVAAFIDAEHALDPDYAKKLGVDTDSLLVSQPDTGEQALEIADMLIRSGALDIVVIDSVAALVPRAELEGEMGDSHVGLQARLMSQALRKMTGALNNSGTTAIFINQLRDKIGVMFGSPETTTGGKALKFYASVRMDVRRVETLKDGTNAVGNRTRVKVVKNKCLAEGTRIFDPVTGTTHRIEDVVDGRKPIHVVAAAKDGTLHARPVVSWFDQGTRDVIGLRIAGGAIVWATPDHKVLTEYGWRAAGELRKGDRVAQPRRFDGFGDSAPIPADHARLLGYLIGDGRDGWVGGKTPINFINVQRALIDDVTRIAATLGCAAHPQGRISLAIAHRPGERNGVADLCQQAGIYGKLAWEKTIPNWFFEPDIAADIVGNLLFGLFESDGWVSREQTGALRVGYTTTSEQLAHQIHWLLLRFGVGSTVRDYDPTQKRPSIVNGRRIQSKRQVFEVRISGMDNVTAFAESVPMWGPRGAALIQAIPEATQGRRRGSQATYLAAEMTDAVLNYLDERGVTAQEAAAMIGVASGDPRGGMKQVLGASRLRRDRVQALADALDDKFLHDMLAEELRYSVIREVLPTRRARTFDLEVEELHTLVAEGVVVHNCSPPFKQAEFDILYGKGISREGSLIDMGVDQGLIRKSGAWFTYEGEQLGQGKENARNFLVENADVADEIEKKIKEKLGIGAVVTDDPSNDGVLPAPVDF

[15] = biological target: T8, Polyadenylate-binding protein 1 (Homo sapiens, UniProt P11940); experiment: PABP1 MLLE–PAM2 interaction inhibitors, dose response, miRNA deadenylation inhibitor project, biochemical, fluorescence polarization, Cy5-PAM2 peptide, secondary (AID 602260); format: functional; conditions: read-out: IC50_Mean
[16] = biological target: T8, Polyadenylate-binding protein 1; experiment: PABP1 MLLE–PAM2 binding inhibitor potency, dose response, biochemical, fluorescence polarization, FITC-PAM2 peptide (AID 602259); format: functional; conditions: read-out: IC50_Mean

T8 sequence (P11940 whole entry): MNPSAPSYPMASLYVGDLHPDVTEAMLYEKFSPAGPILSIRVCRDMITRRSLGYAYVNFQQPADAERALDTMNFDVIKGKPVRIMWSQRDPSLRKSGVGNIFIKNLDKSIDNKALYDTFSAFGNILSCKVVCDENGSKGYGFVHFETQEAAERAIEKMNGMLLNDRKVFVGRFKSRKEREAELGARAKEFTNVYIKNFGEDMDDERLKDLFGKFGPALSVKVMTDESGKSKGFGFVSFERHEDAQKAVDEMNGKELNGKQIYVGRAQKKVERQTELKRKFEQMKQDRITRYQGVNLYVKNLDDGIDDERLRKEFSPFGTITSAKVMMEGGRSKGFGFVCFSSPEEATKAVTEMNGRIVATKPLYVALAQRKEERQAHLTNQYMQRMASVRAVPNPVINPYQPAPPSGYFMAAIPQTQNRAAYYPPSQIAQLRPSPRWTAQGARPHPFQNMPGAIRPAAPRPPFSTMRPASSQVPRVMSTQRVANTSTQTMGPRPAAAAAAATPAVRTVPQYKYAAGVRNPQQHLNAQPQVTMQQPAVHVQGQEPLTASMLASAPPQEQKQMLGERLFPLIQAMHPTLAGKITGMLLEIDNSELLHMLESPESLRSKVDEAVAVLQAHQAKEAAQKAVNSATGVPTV
Chain of Large T antigen (P03070 whole entry): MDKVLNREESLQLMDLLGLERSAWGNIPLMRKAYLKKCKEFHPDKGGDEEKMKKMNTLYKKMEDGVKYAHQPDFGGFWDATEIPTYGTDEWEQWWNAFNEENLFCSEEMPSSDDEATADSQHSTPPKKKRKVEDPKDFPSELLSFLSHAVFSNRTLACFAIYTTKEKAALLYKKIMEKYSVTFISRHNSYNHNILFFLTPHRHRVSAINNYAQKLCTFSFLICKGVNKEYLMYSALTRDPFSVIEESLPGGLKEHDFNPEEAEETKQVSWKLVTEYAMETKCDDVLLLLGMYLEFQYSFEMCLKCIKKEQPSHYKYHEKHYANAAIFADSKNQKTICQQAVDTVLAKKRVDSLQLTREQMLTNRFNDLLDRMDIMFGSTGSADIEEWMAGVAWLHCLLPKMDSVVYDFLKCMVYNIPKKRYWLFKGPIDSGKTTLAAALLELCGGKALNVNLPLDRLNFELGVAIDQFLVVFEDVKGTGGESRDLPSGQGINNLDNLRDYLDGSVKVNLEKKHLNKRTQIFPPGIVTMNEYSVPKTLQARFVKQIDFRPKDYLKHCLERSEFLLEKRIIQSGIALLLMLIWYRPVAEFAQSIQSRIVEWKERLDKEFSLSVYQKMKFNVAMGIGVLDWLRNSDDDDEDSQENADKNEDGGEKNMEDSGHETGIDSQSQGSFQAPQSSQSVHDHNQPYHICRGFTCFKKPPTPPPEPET
Chain of Glyceraldehyde-3-phosphate dehydrogenase (P04406 whole entry): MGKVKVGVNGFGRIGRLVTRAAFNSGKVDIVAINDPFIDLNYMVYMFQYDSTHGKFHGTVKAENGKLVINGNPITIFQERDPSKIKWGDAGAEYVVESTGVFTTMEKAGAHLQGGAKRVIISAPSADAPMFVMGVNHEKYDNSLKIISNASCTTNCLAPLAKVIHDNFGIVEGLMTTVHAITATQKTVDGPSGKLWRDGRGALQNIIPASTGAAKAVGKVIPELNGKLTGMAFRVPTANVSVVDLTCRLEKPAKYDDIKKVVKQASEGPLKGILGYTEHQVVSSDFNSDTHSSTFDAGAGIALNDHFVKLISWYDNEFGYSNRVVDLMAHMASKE
Chain of G-protein coupled receptor 55 (Q9Y2T6 whole entry): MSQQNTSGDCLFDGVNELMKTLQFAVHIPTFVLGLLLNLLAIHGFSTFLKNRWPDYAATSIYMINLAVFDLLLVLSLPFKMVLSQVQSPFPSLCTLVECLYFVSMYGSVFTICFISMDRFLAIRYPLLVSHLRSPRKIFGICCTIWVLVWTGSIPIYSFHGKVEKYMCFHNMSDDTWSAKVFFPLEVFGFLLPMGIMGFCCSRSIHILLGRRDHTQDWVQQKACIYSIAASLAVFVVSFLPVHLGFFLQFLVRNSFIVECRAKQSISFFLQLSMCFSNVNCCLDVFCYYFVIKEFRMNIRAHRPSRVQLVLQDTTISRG
Chain of Cytochrome P450 2C9 (P11712 whole entry): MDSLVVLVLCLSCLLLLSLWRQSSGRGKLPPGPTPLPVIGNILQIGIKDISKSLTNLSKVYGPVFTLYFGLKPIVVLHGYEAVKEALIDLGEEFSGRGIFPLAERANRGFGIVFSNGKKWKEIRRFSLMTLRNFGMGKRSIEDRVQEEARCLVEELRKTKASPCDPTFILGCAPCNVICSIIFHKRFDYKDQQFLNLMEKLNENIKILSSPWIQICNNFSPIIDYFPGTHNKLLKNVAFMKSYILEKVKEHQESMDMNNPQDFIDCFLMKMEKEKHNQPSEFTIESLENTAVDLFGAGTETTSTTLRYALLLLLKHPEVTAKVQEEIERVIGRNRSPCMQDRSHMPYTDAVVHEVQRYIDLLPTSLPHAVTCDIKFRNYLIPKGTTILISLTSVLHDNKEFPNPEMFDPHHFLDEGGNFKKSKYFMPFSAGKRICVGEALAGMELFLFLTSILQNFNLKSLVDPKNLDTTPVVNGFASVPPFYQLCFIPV
Chain of Ion channel NompC (Q7T1G6 whole entry): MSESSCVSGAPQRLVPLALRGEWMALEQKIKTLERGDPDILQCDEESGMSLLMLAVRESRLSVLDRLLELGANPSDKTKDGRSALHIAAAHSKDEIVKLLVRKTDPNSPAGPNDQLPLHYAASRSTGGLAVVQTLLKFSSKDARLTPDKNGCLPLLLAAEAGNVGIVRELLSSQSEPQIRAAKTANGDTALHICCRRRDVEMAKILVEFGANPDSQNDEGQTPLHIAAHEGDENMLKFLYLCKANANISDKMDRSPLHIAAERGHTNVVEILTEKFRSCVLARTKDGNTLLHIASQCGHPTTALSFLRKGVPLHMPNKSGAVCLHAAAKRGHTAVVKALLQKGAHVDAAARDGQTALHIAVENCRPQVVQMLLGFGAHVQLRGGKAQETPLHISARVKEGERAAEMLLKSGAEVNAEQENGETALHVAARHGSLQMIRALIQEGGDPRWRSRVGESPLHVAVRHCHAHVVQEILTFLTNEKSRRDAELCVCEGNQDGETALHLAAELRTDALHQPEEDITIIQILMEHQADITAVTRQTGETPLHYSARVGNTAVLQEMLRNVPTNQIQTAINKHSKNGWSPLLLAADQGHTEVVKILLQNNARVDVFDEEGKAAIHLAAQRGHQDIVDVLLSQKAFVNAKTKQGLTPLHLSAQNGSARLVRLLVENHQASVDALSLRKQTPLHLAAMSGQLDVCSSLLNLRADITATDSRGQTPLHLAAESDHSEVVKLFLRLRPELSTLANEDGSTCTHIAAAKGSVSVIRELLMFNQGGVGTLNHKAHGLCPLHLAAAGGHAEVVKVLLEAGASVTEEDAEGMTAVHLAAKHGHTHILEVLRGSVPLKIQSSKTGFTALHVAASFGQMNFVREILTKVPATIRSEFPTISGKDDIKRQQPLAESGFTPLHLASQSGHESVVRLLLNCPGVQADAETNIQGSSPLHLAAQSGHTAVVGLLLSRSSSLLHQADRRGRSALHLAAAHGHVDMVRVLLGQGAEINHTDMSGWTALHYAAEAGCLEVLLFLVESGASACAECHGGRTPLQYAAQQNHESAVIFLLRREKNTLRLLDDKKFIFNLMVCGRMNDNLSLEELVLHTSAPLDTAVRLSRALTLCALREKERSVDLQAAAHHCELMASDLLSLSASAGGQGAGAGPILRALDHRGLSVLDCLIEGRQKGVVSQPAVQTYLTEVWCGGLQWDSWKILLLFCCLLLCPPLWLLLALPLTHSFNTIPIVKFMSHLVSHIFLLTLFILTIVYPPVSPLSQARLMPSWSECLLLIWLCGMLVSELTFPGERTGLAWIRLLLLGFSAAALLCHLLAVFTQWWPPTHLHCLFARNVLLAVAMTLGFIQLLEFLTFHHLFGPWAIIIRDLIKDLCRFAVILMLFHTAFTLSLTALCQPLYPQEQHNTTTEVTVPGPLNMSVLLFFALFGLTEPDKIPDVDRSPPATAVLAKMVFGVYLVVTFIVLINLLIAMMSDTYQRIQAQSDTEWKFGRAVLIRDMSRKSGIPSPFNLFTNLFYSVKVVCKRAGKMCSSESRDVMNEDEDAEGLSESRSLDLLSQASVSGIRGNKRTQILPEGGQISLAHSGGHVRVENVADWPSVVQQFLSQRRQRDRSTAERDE

COc1ccccc1C1CN=NC12CCCc1ccccc1C2=O (configuration not stated)
EC50 (Mucolipin-3): 1.83 µM (active)
EC50 (Ion channel NompC): > 29.9 µM (not active)

CC1NC(C)C(C)N(C2=C(Cl)C(=O)N(c3ccc(Cl)c(Cl)c3)C2=O)C1C (configuration not stated)
IC50 [1]: > 100 µM (not active)
IC50 (Bcl-2-related protein A1 [2]): 47 µM (active)
IC50 (Bcl-2-related protein A1 [3]): > 100 µM (not active)

Clc1nc2ccccc2cc1-c1nnn(-c2ccccc2)n1
IC50 (Bcl-2-related protein A1 [2]): > 100 µM (not active)
IC50 (Bcl-2-related protein A1 [3]): > 100 µM (not active)

O=C1N=C(N2CCOCC2)S/C1=C/c1ccc(-c2ccc(F)cc2)o1
IC50 [4]: 2.93 µM (active)
IC50 [5]: > 100 µM (active)

Cc1nc2c3cnn(-c4ccc(C)c(C)c4)c3ncn2n1
EC50 [6]: 0.298 µM (active)
EC50 [7]: < 0.1 µM (active)
EC50 [8]: 0.341 µM (active)
EC50 [9]: 0.424 µM (active)
AC50 (Cytochrome P450 2C9): 20 µM (inconclusive)

c1ccc(COc2ccc(OCCCCN3CCCCC3)cc2)cc1
IC50 [10]: 9.46 µM (active)
IC50 [11]: > 35 µM (not active)

Cc1nc2ccc(F)cc2cc1C(=O)Nc1ccc(Cl)c(Cl)c1
IC50 [10]: 8.84 µM (active)
IC50 [11]: 8.88 µM (active)

Cc1nnc2n(c1=O)N=C(c1ccc(Cl)cc1)CS2
EC50 [6]: 0.355 µM (active)
EC50 [7]: < 0.1 µM (inconclusive)
EC50 [8]: 0.249 µM (active)
EC50 [9]: 0.244 µM (active)

COc1ccc2c(c1)-c1nc(/N=C/c3ccc(O)c(OC)c3)sc1CC2
IC50 (Large T antigen): 15.5 µM (active)
IC50 [12]: > 50 µM (not active)
IC50 [13]: > 50 µM (not active)

CCOC(=O)c1c(C)oc2c1c(/C=N/CCO)c(O)c1ccccc12
IC50 [12]: 5.36 µM (active)
IC50 [13]: 4.48 µM (active)
AC50 [14]: > 380 µM (inactive)
CC50 (Vero): 32.9 µM (active)
EC50 (Protein RecA): 0.618 µM (active)
IC50 [15]: > 66 µM (inactive)
IC50 [16]: > 66 µM (inactive)
